ChEMBL document CHEMBL1158892, “Cationic reduction of bastadin-4 to bastadin-5. Preparation of 5-[2h]-bastadin-5 by site-specific isotopic labeling” (J Nat Prod, 2003)

Biological target: Ryanodine receptor 1 (Homo sapiens) (UniProt P21817)
Test: Displacement of [3H]ryanodine from RyR1 calcium channel in sarcoplasmic reticulum assessed as calcium mobilization

Chain of Ryanodine receptor 1 (Homo sapiens) (P21817 whole entry): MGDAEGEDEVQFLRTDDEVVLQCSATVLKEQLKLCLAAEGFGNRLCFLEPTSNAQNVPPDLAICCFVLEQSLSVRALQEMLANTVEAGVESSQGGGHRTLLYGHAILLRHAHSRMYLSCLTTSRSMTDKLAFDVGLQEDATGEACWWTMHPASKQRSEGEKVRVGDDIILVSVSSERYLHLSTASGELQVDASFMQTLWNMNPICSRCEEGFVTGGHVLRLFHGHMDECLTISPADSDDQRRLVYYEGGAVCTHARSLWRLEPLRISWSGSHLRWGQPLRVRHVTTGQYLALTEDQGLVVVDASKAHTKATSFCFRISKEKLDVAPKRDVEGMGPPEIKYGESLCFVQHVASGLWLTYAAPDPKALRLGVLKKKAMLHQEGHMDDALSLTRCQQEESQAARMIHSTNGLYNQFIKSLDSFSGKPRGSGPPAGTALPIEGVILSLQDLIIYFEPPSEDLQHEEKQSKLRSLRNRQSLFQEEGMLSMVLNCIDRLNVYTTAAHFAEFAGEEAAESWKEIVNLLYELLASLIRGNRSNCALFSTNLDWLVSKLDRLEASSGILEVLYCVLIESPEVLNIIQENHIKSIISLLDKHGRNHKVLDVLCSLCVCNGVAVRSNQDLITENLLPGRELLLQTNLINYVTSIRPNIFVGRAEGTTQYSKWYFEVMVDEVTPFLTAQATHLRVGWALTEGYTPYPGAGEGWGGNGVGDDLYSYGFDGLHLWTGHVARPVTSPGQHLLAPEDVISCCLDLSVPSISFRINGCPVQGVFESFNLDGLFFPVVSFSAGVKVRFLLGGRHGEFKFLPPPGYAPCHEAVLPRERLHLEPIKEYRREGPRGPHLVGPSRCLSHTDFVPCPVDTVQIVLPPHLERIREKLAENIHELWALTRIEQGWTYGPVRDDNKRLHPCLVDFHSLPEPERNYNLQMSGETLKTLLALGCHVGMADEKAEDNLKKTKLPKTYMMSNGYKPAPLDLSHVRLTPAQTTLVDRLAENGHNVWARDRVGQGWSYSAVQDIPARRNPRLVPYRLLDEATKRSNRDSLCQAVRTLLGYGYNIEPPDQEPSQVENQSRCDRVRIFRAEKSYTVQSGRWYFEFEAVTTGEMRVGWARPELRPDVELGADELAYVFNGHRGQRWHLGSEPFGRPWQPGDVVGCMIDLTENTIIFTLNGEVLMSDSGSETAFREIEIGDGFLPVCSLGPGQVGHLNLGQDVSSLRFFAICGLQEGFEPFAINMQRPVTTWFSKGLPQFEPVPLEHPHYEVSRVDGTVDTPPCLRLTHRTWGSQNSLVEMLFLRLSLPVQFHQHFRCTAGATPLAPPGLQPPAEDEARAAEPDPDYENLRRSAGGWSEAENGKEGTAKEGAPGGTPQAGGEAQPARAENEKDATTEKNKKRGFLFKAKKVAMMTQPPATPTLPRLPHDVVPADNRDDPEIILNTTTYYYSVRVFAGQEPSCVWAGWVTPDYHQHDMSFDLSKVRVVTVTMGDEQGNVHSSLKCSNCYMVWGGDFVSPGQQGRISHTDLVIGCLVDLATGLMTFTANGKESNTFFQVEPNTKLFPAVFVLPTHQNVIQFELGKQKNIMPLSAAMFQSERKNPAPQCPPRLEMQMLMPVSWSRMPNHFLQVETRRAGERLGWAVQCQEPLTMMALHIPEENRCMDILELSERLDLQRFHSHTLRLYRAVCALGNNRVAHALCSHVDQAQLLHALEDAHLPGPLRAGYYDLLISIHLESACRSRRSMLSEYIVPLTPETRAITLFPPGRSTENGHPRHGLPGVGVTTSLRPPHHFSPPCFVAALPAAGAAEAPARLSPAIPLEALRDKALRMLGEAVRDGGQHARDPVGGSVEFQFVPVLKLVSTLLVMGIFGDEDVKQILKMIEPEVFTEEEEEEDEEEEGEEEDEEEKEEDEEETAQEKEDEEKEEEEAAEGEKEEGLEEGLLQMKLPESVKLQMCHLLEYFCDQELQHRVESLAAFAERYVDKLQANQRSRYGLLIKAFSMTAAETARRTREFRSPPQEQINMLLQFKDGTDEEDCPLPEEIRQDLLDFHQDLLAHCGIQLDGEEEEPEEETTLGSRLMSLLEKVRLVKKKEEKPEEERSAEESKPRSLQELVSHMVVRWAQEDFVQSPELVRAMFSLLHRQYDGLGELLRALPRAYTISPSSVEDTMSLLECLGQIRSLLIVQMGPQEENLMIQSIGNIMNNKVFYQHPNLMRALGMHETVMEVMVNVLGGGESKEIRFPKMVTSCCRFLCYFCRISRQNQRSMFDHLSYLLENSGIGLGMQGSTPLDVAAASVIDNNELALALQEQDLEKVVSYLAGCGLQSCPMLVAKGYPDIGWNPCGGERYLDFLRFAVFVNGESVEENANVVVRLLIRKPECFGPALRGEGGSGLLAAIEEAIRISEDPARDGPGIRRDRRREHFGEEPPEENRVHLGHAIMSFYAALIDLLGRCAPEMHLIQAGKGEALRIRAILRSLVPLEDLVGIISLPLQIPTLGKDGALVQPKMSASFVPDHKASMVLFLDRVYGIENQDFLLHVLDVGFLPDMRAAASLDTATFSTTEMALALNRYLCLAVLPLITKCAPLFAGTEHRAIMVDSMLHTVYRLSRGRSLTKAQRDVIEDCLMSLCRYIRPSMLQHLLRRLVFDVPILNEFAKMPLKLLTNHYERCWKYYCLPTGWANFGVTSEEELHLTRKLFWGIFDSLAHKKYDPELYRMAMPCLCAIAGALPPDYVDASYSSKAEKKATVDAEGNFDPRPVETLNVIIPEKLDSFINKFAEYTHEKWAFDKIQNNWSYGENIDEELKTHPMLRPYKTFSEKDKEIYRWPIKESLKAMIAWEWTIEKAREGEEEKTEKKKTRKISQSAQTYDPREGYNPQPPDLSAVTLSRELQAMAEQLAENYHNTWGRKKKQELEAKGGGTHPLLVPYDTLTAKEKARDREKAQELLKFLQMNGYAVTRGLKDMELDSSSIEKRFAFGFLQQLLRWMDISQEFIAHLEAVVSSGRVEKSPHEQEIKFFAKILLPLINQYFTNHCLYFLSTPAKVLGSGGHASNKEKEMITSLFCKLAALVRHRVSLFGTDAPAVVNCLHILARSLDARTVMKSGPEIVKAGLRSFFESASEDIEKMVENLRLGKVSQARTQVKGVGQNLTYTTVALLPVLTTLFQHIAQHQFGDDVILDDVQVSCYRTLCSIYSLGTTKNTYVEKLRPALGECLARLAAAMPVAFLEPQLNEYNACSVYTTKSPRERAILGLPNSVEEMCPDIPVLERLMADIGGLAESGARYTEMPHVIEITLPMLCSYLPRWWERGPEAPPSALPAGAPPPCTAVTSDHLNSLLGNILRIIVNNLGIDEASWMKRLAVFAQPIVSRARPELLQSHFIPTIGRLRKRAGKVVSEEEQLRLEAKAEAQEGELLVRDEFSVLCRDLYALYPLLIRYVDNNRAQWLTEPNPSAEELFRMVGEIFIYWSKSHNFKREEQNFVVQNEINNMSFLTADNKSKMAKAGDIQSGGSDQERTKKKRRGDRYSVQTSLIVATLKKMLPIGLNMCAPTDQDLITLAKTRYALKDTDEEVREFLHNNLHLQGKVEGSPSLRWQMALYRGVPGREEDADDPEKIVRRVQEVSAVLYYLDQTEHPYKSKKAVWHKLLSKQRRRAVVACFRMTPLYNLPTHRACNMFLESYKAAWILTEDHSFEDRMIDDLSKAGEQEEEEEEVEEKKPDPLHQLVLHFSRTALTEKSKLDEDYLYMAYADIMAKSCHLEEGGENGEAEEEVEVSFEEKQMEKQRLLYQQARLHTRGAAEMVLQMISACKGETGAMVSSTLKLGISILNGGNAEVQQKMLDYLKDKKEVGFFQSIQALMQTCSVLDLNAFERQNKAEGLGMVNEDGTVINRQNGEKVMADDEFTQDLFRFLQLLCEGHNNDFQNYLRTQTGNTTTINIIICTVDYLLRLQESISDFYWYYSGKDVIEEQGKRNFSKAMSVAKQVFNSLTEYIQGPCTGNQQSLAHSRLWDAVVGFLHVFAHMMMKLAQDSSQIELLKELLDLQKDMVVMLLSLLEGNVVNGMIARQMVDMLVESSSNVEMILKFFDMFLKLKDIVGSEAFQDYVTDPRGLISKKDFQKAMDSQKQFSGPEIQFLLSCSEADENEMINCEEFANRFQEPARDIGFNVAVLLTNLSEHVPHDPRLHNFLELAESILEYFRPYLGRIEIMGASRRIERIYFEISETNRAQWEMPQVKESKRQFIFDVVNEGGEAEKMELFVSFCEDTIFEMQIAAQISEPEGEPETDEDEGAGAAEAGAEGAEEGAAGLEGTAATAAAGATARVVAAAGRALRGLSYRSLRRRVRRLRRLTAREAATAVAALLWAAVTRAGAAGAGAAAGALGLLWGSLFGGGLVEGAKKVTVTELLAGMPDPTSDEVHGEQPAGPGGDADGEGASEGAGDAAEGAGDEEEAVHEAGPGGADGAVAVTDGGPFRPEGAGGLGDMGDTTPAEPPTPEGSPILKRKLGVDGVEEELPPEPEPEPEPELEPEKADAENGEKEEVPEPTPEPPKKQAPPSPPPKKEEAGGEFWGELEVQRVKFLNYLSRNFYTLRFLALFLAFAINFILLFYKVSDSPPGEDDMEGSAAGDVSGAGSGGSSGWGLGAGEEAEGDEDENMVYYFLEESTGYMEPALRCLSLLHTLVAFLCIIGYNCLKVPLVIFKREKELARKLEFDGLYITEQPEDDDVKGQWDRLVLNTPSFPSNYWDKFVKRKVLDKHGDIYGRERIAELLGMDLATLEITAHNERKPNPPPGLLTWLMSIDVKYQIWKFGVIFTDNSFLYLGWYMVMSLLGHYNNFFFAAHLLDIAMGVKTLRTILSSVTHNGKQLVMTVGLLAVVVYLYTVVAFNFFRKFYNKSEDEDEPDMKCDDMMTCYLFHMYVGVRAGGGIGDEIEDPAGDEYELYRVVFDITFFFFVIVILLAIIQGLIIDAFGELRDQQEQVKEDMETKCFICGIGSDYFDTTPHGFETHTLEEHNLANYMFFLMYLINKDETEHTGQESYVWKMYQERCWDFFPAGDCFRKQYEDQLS

O=C1NCCc2cc(Br)c(O)c(c2)Oc2ccc(cc2Br)CCNC(=O)/C(=N\O)Cc2cc(Br)c(O)c(c2)Oc2c(Br)cc(cc2Br)C/C1=N/O
ED50: 2300 nM
